# Measured values published in patent US8445492B2, “Method for inhibiting growth of cancer cells and cell telomere and diseases of cell proliferation by using heteroannelated anthraquinone derivative compounds” (National Defense Medical Center, priority 2008, dated 2013).
# Experiments:
# Assay type in all cases: cell-based
# Settings in all cases: for GI50: read-out: GI50
# [1] = test system: SF-268; assay: NCI DTP in-vitro dose response, CNS Cancer
# [2] = test system: SNB-75; assay: NCI DTP in-vitro dose response, CNS Cancer
# [3] = test system: SNB-19; assay: NCI DTP in-vitro dose response, CNS Cancer
# [4] = test system: SF-539; assay: NCI DTP in-vitro dose response, CNS Cancer
# [5] = test system: U251; assay: NCI DTP in-vitro dose response, CNS Cancer
# [6] = test system: SF-295; assay: NCI DTP in-vitro dose response, CNS Cancer
# [7] = test system: KM12; assay: NCI DTP in-vitro dose response, Colon Cancer
# [8] = test system: HCC-2998; assay: NCI DTP in-vitro dose response, Colon Cancer
# [9] = test system: COLO 205; assay: NCI DTP in-vitro dose response, Colon Cancer
# [10] = test system: HT29; assay: NCI DTP in-vitro dose response, Colon Cancer
# [11] = test system: SW-620; assay: NCI DTP in-vitro dose response, Colon Cancer
# [12] = test system: HCT-15; assay: NCI DTP in-vitro dose response, Colon Cancer
# [13] = test system: HCT-116; assay: NCI DTP in-vitro dose response, Colon Cancer
smiles,measurement,setting,value
CCc1nc2ccc3c(c2[nH]1)C(=O)c1ccccc1C3=O [TABLE 4-4],CC50,[1],> 100 µM
same,TGI,[1],>1.00E−4
same,Percent Growth,[1]; Log10 Concentration −4.0,28%
same,Percent Growth,[1]; Log10 Concentration −5.0,57%
same,Percent Growth,[1]; Log10 Concentration −6.0,88%
same,Percent Growth,[1]; Log10 Concentration −7.0,96%
same,Percent Growth,[1]; Log10 Concentration −8.0,87%
same,GI50,[1],17.7 µM
same,CC50,[2],> 100 µM
same,TGI,[2],>1.00E−4
same,Percent Growth,[2]; Log10 Concentration −4.0,17%
same,Percent Growth,[2]; Log10 Concentration −5.0,41%
same,Percent Growth,[2]; Log10 Concentration −6.0,49%
same,Percent Growth,[2]; Log10 Concentration −7.0,66%
same,Percent Growth,[2]; Log10 Concentration −8.0,66%
same,GI50,[2],0.872 µM
same,CC50,[3],> 100 µM
same,TGI,[3],>1.00E−4
same,Percent Growth,[3]; Log10 Concentration −4.0,39%
same,Percent Growth,[3]; Log10 Concentration −5.0,61%
same,Percent Growth,[3]; Log10 Concentration −6.0,92%
same,Percent Growth,[3]; Log10 Concentration −7.0,94%
same,Percent Growth,[3]; Log10 Concentration −8.0,84%
same,GI50,[3],30.9 µM
same,CC50,[4],> 100 µM
same,TGI,[4],>1.00E−4
same,Percent Growth,[4]; Log10 Concentration −4.0,13%
same,Percent Growth,[4]; Log10 Concentration −5.0,46%
same,Percent Growth,[4]; Log10 Concentration −6.0,80%
same,Percent Growth,[4]; Log10 Concentration −7.0,83%
same,Percent Growth,[4]; Log10 Concentration −8.0,81%
same,GI50,[4],7.46 µM
same,CC50,[5],> 100 µM
same,TGI,[5],>1.00E−4
same,Percent Growth,[5]; Log10 Concentration −4.0,27%
same,Percent Growth,[5]; Log10 Concentration −5.0,49%
same,Percent Growth,[5]; Log10 Concentration −6.0,84%
same,Percent Growth,[5]; Log10 Concentration −7.0,96%
same,Percent Growth,[5]; Log10 Concentration −8.0,94%
same,GI50,[5],9.58 µM
same,CC50,[6],> 100 µM
same,TGI,[6],>1.00E−4
same,Percent Growth,[6]; Log10 Concentration −4.0,9%
same,Percent Growth,[6]; Log10 Concentration −5.0,35%
same,Percent Growth,[6]; Log10 Concentration −6.0,69%
same,Percent Growth,[6]; Log10 Concentration −7.0,90%
same,Percent Growth,[6]; Log10 Concentration −8.0,88%
same,GI50,[6],3.65 µM
O=C1c2ccccc2C(=O)c2c1ccc1nccnc21 [TABLE 5-4],CC50,[1],> 100 µM
same,TGI,[1],>1.00E−4
same,Percent Growth,[1]; Log10 Concentration −4.0,1%
same,Percent Growth,[1]; Log10 Concentration −5.0,34%
same,Percent Growth,[1]; Log10 Concentration −6.0,86%
same,Percent Growth,[1]; Log10 Concentration −7.0,92%
same,Percent Growth,[1]; Log10 Concentration −8.0,96%
same,GI50,[1],4.98 µM
same,CC50,[2],> 100 µM
same,TGI,[2],>1.00E−4
same,Percent Growth,[2]; Log10 Concentration −4.0,11%
same,Percent Growth,[2]; Log10 Concentration −5.0,53%
same,Percent Growth,[2]; Log10 Concentration −6.0,76%
same,Percent Growth,[2]; Log10 Concentration −7.0,87%
same,Percent Growth,[2]; Log10 Concentration −8.0,83%
same,GI50,[2],11.9 µM
same,CC50,[3],> 100 µM
same,TGI,[3],>1.00E−4
same,Percent Growth,[3]; Log10 Concentration −4.0,4%
same,Percent Growth,[3]; Log10 Concentration −5.0,57%
same,Percent Growth,[3]; Log10 Concentration −6.0,90%
same,Percent Growth,[3]; Log10 Concentration −7.0,93%
same,Percent Growth,[3]; Log10 Concentration −8.0,94%
same,GI50,[3],13.4 µM
same,CC50,[4],> 100 µM
same,TGI,[4],5.37E−5
same,Percent Growth,[4]; Log10 Concentration −4.0,−9%
same,Percent Growth,[4]; Log10 Concentration −5.0,23%
same,Percent Growth,[4]; Log10 Concentration −6.0,64%
same,Percent Growth,[4]; Log10 Concentration −7.0,88%
same,Percent Growth,[4]; Log10 Concentration −8.0,90%
same,GI50,[4],2.18 µM
same,CC50,[5],> 100 µM
same,TGI,[5],4.29E−5
same,Percent Growth,[5]; Log10 Concentration −4.0,−21%
same,Percent Growth,[5]; Log10 Concentration −5.0,35%
same,Percent Growth,[5]; Log10 Concentration −6.0,89%
same,Percent Growth,[5]; Log10 Concentration −7.0,93%
same,Percent Growth,[5]; Log10 Concentration −8.0,96%
same,GI50,[5],5.38 µM
same,CC50,[6],> 100 µM
same,TGI,[6],3.23E−5
same,Percent Growth,[6]; Log10 Concentration −4.0,−24%
same,Percent Growth,[6]; Log10 Concentration −5.0,25%
same,Percent Growth,[6]; Log10 Concentration −6.0,95%
same,Percent Growth,[6]; Log10 Concentration −7.0,83%
same,Percent Growth,[6]; Log10 Concentration −8.0,90%
same,GI50,[6],4.35 µM
CCc1nc2ccc3c(c2[nH]1)C(=O)c1ccccc1C3=O [TABLE 4-3],CC50,[7],> 100 µM
same,TGI,[7],>1.00E−4
same,Percent Growth,[7]; Log10 Concentration −4.0,13%
same,Percent Growth,[7]; Log10 Concentration −5.0,43%
same,Percent Growth,[7]; Log10 Concentration −6.0,89%
same,Percent Growth,[7]; Log10 Concentration −7.0,94%
same,Percent Growth,[7]; Log10 Concentration −8.0,98%
same,GI50,[7],7.15 µM
same,CC50,[8],> 100 µM
same,TGI,[8],>1.00E−4
same,Percent Growth,[8]; Log10 Concentration −4.0,22%
same,Percent Growth,[8]; Log10 Concentration −5.0,59%
same,Percent Growth,[8]; Log10 Concentration −6.0,90%
same,Percent Growth,[8]; Log10 Concentration −7.0,94%
same,Percent Growth,[8]; Log10 Concentration −8.0,88%
same,GI50,[8],17.4 µM
same,CC50,[9],> 100 µM
same,TGI,[9],>1.00E−4
same,Percent Growth,[9]; Log10 Concentration −4.0,9%
same,Percent Growth,[9]; Log10 Concentration −5.0,41%
same,Percent Growth,[9]; Log10 Concentration −6.0,85%
same,Percent Growth,[9]; Log10 Concentration −7.0,93%
same,Percent Growth,[9]; Log10 Concentration −8.0,93%
same,GI50,[9],6.36 µM
same,CC50,[10],> 100 µM
same,TGI,[10],>1.00E−4
same,Percent Growth,[10]; Log10 Concentration −4.0,11%
same,Percent Growth,[10]; Log10 Concentration −5.0,48%
same,Percent Growth,[10]; Log10 Concentration −6.0,88%
same,Percent Growth,[10]; Log10 Concentration −7.0,100%
same,Percent Growth,[10]; Log10 Concentration −8.0,94%
same,GI50,[10],8.84 µM
same,CC50,[11],> 100 µM
same,TGI,[11],>1.00E−4
same,Percent Growth,[11]; Log10 Concentration −4.0,6%
same,Percent Growth,[11]; Log10 Concentration −5.0,39%
same,Percent Growth,[11]; Log10 Concentration −6.0,89%
same,Percent Growth,[11]; Log10 Concentration −7.0,96%
same,Percent Growth,[11]; Log10 Concentration −8.0,99%
same,GI50,[11],5.97 µM
same,CC50,[12],> 100 µM
same,TGI,[12],>1.00E−4
same,Percent Growth,[12]; Log10 Concentration −4.0,8%
same,Percent Growth,[12]; Log10 Concentration −5.0,27%
same,Percent Growth,[12]; Log10 Concentration −6.0,69%
same,Percent Growth,[12]; Log10 Concentration −7.0,93%
same,Percent Growth,[12]; Log10 Concentration −8.0,90%
same,GI50,[12],2.82 µM
same,CC50,[13],> 100 µM
same,TGI,[13],>1.00E−4
same,Percent Growth,[13]; Log10 Concentration −4.0,11%
same,Percent Growth,[13]; Log10 Concentration −5.0,42%
same,Percent Growth,[13]; Log10 Concentration −6.0,78%
same,Percent Growth,[13]; Log10 Concentration −7.0,95%
same,Percent Growth,[13]; Log10 Concentration −8.0,92%
same,GI50,[13],6.1 µM
O=C1c2ccccc2C(=O)c2c1ccc1nccnc21 [TABLE 5-3],CC50,[7],> 100 µM
same,TGI,[7],4.95E−5
same,Percent Growth,[7]; Log10 Concentration −4.0,−18%
same,Percent Growth,[7]; Log10 Concentration −5.0,40%
same,Percent Growth,[7]; Log10 Concentration −6.0,76%
same,Percent Growth,[7]; Log10 Concentration −7.0,90%
same,Percent Growth,[7]; Log10 Concentration −8.0,89%
same,GI50,[7],5.26 µM
same,CC50,[8],> 100 µM
same,TGI,[8],8.35E−5
same,Percent Growth,[8]; Log10 Concentration −4.0,−3%
same,Percent Growth,[8]; Log10 Concentration −5.0,40%
same,Percent Growth,[8]; Log10 Concentration −6.0,52%
same,Percent Growth,[8]; Log10 Concentration −7.0,94%
same,Percent Growth,[8]; Log10 Concentration −8.0,97%
same,GI50,[8],1.4 µM
same,CC50,[9],> 100 µM
same,TGI,[9],2.84E−5
same,Percent Growth,[9]; Log10 Concentration −4.0,−35%
same,Percent Growth,[9]; Log10 Concentration −5.0,29%
same,Percent Growth,[9]; Log10 Concentration −6.0,74%
same,Percent Growth,[9]; Log10 Concentration −7.0,86%
same,Percent Growth,[9]; Log10 Concentration −8.0,92%
same,GI50,[9],3.4 µM
same,CC50,[10],> 100 µM
same,TGI,[10],>1.00E−4
same,Percent Growth,[10]; Log10 Concentration −4.0,1%
same,Percent Growth,[10]; Log10 Concentration −5.0,46%
same,Percent Growth,[10]; Log10 Concentration −6.0,74%
same,Percent Growth,[10]; Log10 Concentration −7.0,95%
same,Percent Growth,[10]; Log10 Concentration −8.0,99%
same,GI50,[10],7.01 µM
same,CC50,[11],> 100 µM
same,TGI,[11],3.08E−5
same,Percent Growth,[11]; Log10 Concentration −4.0,−26%
same,Percent Growth,[11]; Log10 Concentration −5.0,25%
same,Percent Growth,[11]; Log10 Concentration −6.0,58%
same,Percent Growth,[11]; Log10 Concentration −7.0,87%
same,Percent Growth,[11]; Log10 Concentration −8.0,94%
same,GI50,[11],1.71 µM
same,CC50,[12],> 100 µM
same,TGI,[12],8.43E−5
same,Percent Growth,[12]; Log10 Concentration −4.0,−3%
same,Percent Growth,[12]; Log10 Concentration −5.0,37%
same,Percent Growth,[12]; Log10 Concentration −6.0,77%
same,Percent Growth,[12]; Log10 Concentration −7.0,84%
same,Percent Growth,[12]; Log10 Concentration −8.0,88%
same,GI50,[12],4.63 µM
same,CC50,[13],> 100 µM
same,TGI,[13],>1.00E−4
same,Percent Growth,[13]; Log10 Concentration −4.0,3%
same,Percent Growth,[13]; Log10 Concentration −5.0,55%
same,Percent Growth,[13]; Log10 Concentration −6.0,91%
same,Percent Growth,[13]; Log10 Concentration −7.0,99%
same,Percent Growth,[13]; Log10 Concentration −8.0,96%
same,GI50,[13],12.3 µM
